Results on 14 compounds are retold here after PubChem BioAssay (NCI).

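Step 1: Grow cells in 96-well plates. Step 2: Expose to compound for 48 hours at 5 concentrations. Step 3: Interpolate endpoints linearly; if unreached, use highest concentration. Abbreviation: GI50, concentration required for 50% inhibition of growth. Definition used: TGI = concentration required for complete inhibition of growth.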 A value given as a limit tells only on which side of the number the result lay.

Some test systems named below: CAKI-1 renal; EKVX NSCLC; K-562 leukemia; SK-OV-3 ovarian; M19-MEL melanoma; SR leukemia; COLO 205 colon; HCT-15 colon; HOP-18 NSCLC; HS 578T breast.
Assay in all cases: NCI anticancer screen, dose series, 48 h

As to `CCC12CCCN(Cc3ccccc3)C1c1c(n(C)c3ccccc13)CC2` (stereo not given), the TGI in the assay with CAKI-1 renal, in the assay with EKVX NSCLC, with K-562 leukemia, in the assay with SK-OV-3 ovarian, with M19-MEL melanoma and with SR leukemia was above 253 µM each time. The TGI in the assay with COLO 205 colon and in the assay on HCT-15 colon was above 253 µM each time.
As for `CN1CC(=O)N2Cc3ccccc3-n3cccc3C2C1` (stereo not given), the TGI in the assay with CAKI-1 renal, with EKVX NSCLC, in the assay with SK-OV-3 ovarian, in the assay on M19-MEL melanoma, with COLO 205 colon and in the assay on HCT-15 colon was above 100 µM in each case. Also, the TGI in the assay with HOP-18 NSCLC is 91.7 µM.
With `Cc1cn2c(=O)c3ncn(C4OC(CO)C(O)C4O)c3n(C)c2n1` (stereo not given), the TGI in the assay with CAKI-1 renal, in the assay with EKVX NSCLC, in the assay with K-562 leukemia, with SK-OV-3 ovarian, in the assay with M19-MEL melanoma and with COLO 205 colon was above 100 µM each time. Moreover, the TGI in the assay with HCT-15 colon and with HOP-18 NSCLC was above 100 µM throughout.
In the case of `CC12C/C(=C\c3ccccc3)C(=O)C3C1CCCC32`, the TGI in the assay with CAKI-1 renal, in the assay on K-562 leukemia, in the assay with SK-OV-3 ovarian, in the assay with M19-MEL melanoma, in the assay with SR leukemia and in the assay with COLO 205 colon was above 100 µM in each case. Further, the TGI in the assay with HCT-15 colon and in the assay with HOP-18 NSCLC was above 100 µM throughout.
For `OC(CC1SCCCS1)c1ccccc1` (stereo not given), the TGI in the assay on CAKI-1 renal, in the assay with EKVX NSCLC, in the assay on K-562 leukemia, in the assay with SK-OV-3 ovarian, in the assay with M19-MEL melanoma and with COLO 205 colon was above 100 µM each time. For the same compound, the TGI in the assay on HCT-15 colon and with HOP-18 NSCLC was above 100 µM each time.
`CC(C)C(CCl)NC(=O)c1cccc(C(=O)N[C@H](CCl)C(C)C)n1` (stereo in doubt): the TGI in the assay on CAKI-1 renal, with EKVX NSCLC, with K-562 leukemia, with SK-OV-3 ovarian, in the assay on M19-MEL melanoma and in the assay with SR leukemia was above 100 µM throughout. Also, the TGI in the assay with COLO 205 colon and with HCT-15 colon was above 100 µM in each case.
Consider `CCN(CC)CCCN1CCc2c([nH]c3ccccc23)C1c1cccnc1` (stereo not given), for which the TGI in the assay with CAKI-1 renal, with EKVX NSCLC, with K-562 leukemia, with SK-OV-3 ovarian, in the assay on M19-MEL melanoma and in the assay on SR leukemia was above 100 µM in each case. In addition, the TGI with COLO 205 colon and with HCT-15 colon was above 100 µM throughout.
Turning to `CC(C)N(C(=O)C12C3C4C1C1C4(C#N)C3C12C#N)C(C)C` (stereo not given), the TGI in the assay on CAKI-1 renal, in the assay with EKVX NSCLC, with K-562 leukemia, in the assay with SK-OV-3 ovarian, in the assay with M19-MEL melanoma and in the assay with COLO 205 colon was above 100 µM throughout. Further, the TGI in the assay on HCT-15 colon and with HOP-18 NSCLC was above 100 µM throughout.
With `Cn1c(I)c(C#CCO[Si](C)(C)C(C)(C)C)c(=O)[nH]c1=O`, the GI50 in the assay with CAKI-1 renal was 3.29 µM; with EKVX NSCLC, 17.5 µM; in the assay on K-562 leukemia it was 2.06 µM; in the assay with SK-OV-3 ovarian, above 100 µM; with HS 578T breast, 20.1 µM; with SR leukemia, 1.53 µM. Further, the results for the GI50 in the assay with COLO 205 colon and in the assay with HCT-15 colon were 6.41 µM and 13.5 µM, respectively. The TGI was 12.6 µM in the assay on CAKI-1 renal; 32.8 µM in the assay with EKVX NSCLC; 4.36 µM in the assay on K-562 leukemia; above 100 µM with SK-OV-3 ovarian; 43.4 µM in the assay with HS 578T breast; 3.6 µM in the assay with SR leukemia. Also, the TGI was 20 µM in the assay on COLO 205 colon and 27.6 µM in the assay on HCT-15 colon.
Turning to `O=C1c2ccccc2C(=O)N1CCn1ccc(NC(c2ccccc2)(c2ccccc2)c2ccccc2)nc1=O`, the TGI was above 100 µM in the assay on CAKI-1 renal; above 100 µM in the assay on EKVX NSCLC; 63.8 µM in the assay on K-562 leukemia; above 100 µM in the assay with SK-OV-3 ovarian; 32.6 µM in the assay with M19-MEL melanoma; 31.4 µM with COLO 205 colon. Besides, the TGI in the assay with HCT-15 colon worked out at 62.6 µM; in the assay on HOP-18 NSCLC, 42.6 µM.
Consider `C(=NCCN1CCOCC1)=NC1CCCCC1`, for which the TGI with CAKI-1 renal, in the assay with EKVX NSCLC, in the assay on K-562 leukemia, with SK-OV-3 ovarian, in the assay with HS 578T breast and in the assay with SR leukemia was above 100 µM each time. Further, the TGI in the assay with COLO 205 colon and in the assay on HCT-15 colon was above 100 µM each time.
`O=C(O)c1nnsc1-c1ccc(-c2snnc2C(=O)O)cc1`: the TGI is above 100 µM in the assay with CAKI-1 renal; above 100 µM with EKVX NSCLC; 98.3 µM in the assay on K-562 leukemia; above 100 µM in the assay on SK-OV-3 ovarian; above 100 µM with HS 578T breast; above 100 µM in the assay with SR leukemia. Also, the TGI in the assay with COLO 205 colon and in the assay on HCT-15 colon was above 100 µM in each case.
Take `COc1ccccc1/C=N\N/C(N)=N\N=C\c1ccccc1OC`: the GI50 was 0.207 µM with CAKI-1 renal; 0.574 µM with EKVX NSCLC; 0.263 µM in the assay with K-562 leukemia; 0.484 µM in the assay on SK-OV-3 ovarian; 0.447 µM in the assay with HS 578T breast; 0.0319 µM with SR leukemia. Besides, the GI50 in the assay with COLO 205 colon is 0.232 µM; in the assay on HCT-15 colon, 0.465 µM. For the same compound, the TGI with CAKI-1 renal is 4.11 µM; in the assay with EKVX NSCLC, 14.3 µM; with K-562 leukemia, 1.7 µM; with SK-OV-3 ovarian, 7.62 µM; with HS 578T breast, 38.7 µM; in the assay with SR leukemia it was 0.74 µM. Further, the TGI was 0.631 µM with COLO 205 colon and above 37.5 µM in the assay on HCT-15 colon.
`COc1cc(OCc2cccc(-c3ccc(C(O)c4nccs4)cc3)c2C)cc(OC)c1C=O` (stereo not given): the GI50 in the assay with CAKI-1 renal is 0.182 µM; in the assay on EKVX NSCLC, 2.02 µM; in the assay with K-562 leukemia, 1.22 µM; in the assay with SK-OV-3 ovarian, 6.07 µM; with HS 578T breast it was 3.08 µM; in the assay on SR leukemia it was 1.82 µM. Besides, the values for the GI50 in the assay with COLO 205 colon and in the assay on HCT-15 colon were 2.64 µM and 1.79 µM, respectively. For the same compound, the TGI in the assay with CAKI-1 renal was 3.3 µM; with EKVX NSCLC it was 6.63 µM; in the assay with K-562 leukemia it was 13.6 µM; in the assay with SK-OV-3 ovarian, 20.9 µM; with HS 578T breast, 20.5 µM; with SR leukemia it was 5.08 µM. The results for the TGI in the assay on COLO 205 colon and with HCT-15 colon were 8.27 µM and 4.4 µM, respectively.
